Results as given in patent publication US20230293599A1, “BACTERIAL COMPOSITIONS WITH ANTI-INFLAMMATORY ACTIVITY” (Universiteit Gent, priority 2020, published 2023).
Where two headings read alike, the source gives them in different places. Residues, ends and D or L forms follow the SMILES beside them.

Columns and labels:
[1] = tested on: S. aureus; assay type: cell-based, Staphylococcus aureus
Experimental: (§1) Using Phenotype Microarray (PM) panels (Biolog), the influence of 190 carbon sources on the growth of the potential probiotic species R. mucilaginosa, R. dentocariosa, R. gilardii, G. haemolysans, and common respiratory pathogens P. aeruginosa, and S. aureus was determined. PM1 and PM2 panels (Biolog) were inoculated according to the manufacturer's instructions. Growth curves were generated for 35 hours by measuring the absorbance at 590 nm using an EnVision (Perkin Elmer) plate reader.

[2] = tested on: P. aeruginosa; test: Biolog Phenotype Microarray PM1-2 growth on carbon sources; assay type: cell-based, Pseudomonas aeruginosa
Experimental: as §1

[3] = tested on: R. dentocariosa; test: as above; assay type: cell-based, Rothia dentocariosa
Experimental: as §1

[4] = tested on: R. gilardii; test: as above; assay type: cell-based, Roseomonas gilardii
Experimental: as §1

[5] = tested on: R. mucilaginosa; test: as above; assay type: cell-based, Rothia mucilaginosa; details: 35 hours, absorbance 590 nm, n = 1; cells without values AUC < 50
Experimental: as §1

[6] = 35 hours, absorbance 590 nm, n = 1, cells without values AUC < 50

Row | Compound | AUC of growth curve, S. aureus [1] | AUC of growth curve, P. aeruginosa [2, 6] | other results
1 | O=C(O)c1ccc(O)cc1 [4-Hydroxy Benzoic Acid] | 140.6 | 909.3 | –
2 | OC[C@H]1O[C@@H](Oc2ccc(O)cc2)[C@H](O)[C@@H](O)[C@@H]1O [Arbutin] | 282.2 | – | AUC of growth curve, R. dentocariosa [3, 6]: 55.2
3 | C[C@@H](O)[C@H](O)[C@H](O)[C@@H](O)C=O [D-Fucose] | 138.3 | 91.3 | AUC of growth curve, R. gilardii [4, 6]: 71.4; AUC of growth curve, R. dentocariosa [3, 6]: 119.9
4 | O=C(O)CC(O)C(=O)O (racemic) [D,L-Malic Acid] | 696.0 | 852.7 | AUC of growth curve, R. gilardii [4, 6]: 169.8
5 | OC[C@H]1O[C@H](OCC2O[C@@H](O)[C@H](O)[C@@H](O)[C@@H]2O)[C@H](O)[C@@H](O)[C@H]1O (stereo partly drawn) [D-Melibiose] | 220.2 | – | AUC of growth curve, R. gilardii [4, 6]: 86.9; AUC of growth curve, R. dentocariosa [3, 6]: 249.8
6 | CSCC[C@H](N)C(=O)O [L-Methionine] | 254.7 | 52.6 | –
7 | O=C[C@@H](O)[C@H](O[C@@H]1O[C@H](CO)[C@H](O)[C@H](O)[C@H]1O)[C@H](O)CO [3-0-β-D-Galacto-pyranosyl-D-Arabinose] | 446.3 | 188.8 | –
8 | N[C@@H](CC(=O)O)C(=O)O [L-Aspartic Acid] | 464.1 | 730.7 | –
9 | N[C@@H](Cc1c[nH]cn1)C(=O)O [L-Histidine] | 467.3 | 773.2 | –
10 | CC[C@H](C)[C@H](N)C(=O)O [L-Isoleucine] | 113.8 | 86.2 | –
11 | COC(=O)[C@@H](C)O [D-Lactic Acid Methyl Ester] | 517.2 | 1081.7 | –
12 | O=C(O)[C@H](O)[C@@H](O)[C@H](O)[C@H](O)CO [D-Gluconic Acid] | 321.0 | – | AUC of growth curve, P. aeruginosa [2]: 617.8
13 | O=C(O)[C@@H](O)[C@H](O)[C@H](O)[C@@H](O)C(=O)O [Mucic Acid] | 162.5 | – | AUC of growth curve, R. mucilaginosa [5]: 53.4
14 | NCC(=O)N[C@@H](CC(=O)O)C(=O)O [Glycyl-L-Aspartic Acid] (H-Gly-Asp-OH) | 840.3 | – | AUC of growth curve, P. aeruginosa [2]: 538.0
15 | O=C(O)C(=O)C(C(=O)O)C(O)C(=O)O (stereo not shown) [Oxalomalic Acid] | 691.0 | – | growth of P. aeruginosa on the carbon source (in words) [2]: did not support growth; AUC of growth curve, R. gilardii [4]: 219.2; growth of R. gilardii on the carbon source (in words) [4]: enabled growth; AUC of growth curve, R. dentocariosa [3]: 169.4; growth of R. dentocariosa on the carbon source (in words) [3]: enabled growth
16 | COC1OC(CO)C(O)C(O)C1O [α-Methyl-D-Galactoside] | 229.9 | – | AUC of growth curve, R. gilardii [4, 6]: 73.3
17 | N[C@@H](CCC(=O)O)C(=O)O [L-Glutamic Acid] | – | 788.3 | AUC of growth curve, S. aureus [1, 6]: 644.7
18 | OC[C@H]1O[C@@](CO)(O[C@H]2O[C@H](CO)[C@@H](O)[C@H](O)[C@H]2O)[C@@H](O[C@H]2O[C@H](CO)[C@@H](O)[C@H](O)[C@H]2O)[C@@H]1O [D-Melezitose] | 969.2 | – | AUC of growth curve, R. dentocariosa [3, 6]: 57.2
19 | O=C1O[C@H]([C@@H](O)CO)[C@@H](O)[C@@H]1O [L-Galactonic Acid γ-Lactone] | 176.4 | – | AUC of growth curve, P. aeruginosa [2]: 549.8; AUC of growth curve, R. gilardii [4]: 212.2

Row | Compound | AUC of growth curve, S. aureus [1] | AUC of growth curve, P. aeruginosa [2, 6] | other results
20 | O=C[C@H](O)[C@@H](O)[C@H](O)[C@H](O)C(=O)O [D-Glucuronic Acid] | 292.7 | 543.2 | –
21 | O=C[C@H](O)[C@@H](O)[C@H](O)[C@H](O)COP(=O)(O)O [D-Glucose-6-Phosphate] | 168.0 | 399.6 | –
22 | NCC(=O)N1CCC[C@H]1C(=O)O [Glycyl-L-Proline] (H-Gly-Pro-OH) | 292.4 | – | AUC of growth curve, P. aeruginosa [2]: 387.4; AUC of growth curve, R. dentocariosa [3]: 72.5
23 | O=C(O)CC(=O)O [Malonic Acid] | 470.9 | 234.7 | –
24 | C[C@@H](N)C(=O)O [D-Alanine] | 464.9 | 668.1 | –
25 | O=C(O)CCC(=O)O [Succinic Acid] | 626.1 | 348.4 | AUC of growth curve, R. gilardii [4, 6]: 125.7; AUC of growth curve, R. dentocariosa [3, 6]: 241.8
26 | CC(=O)C(C)O (stereo not shown) [3-Hydroxy 2-Butanone] | 255.6 | 183.2 | –
27 | O=C(O)/C=C/C(=O)O [Fumaric Acid] | 687.9 | 1085.5 | AUC of growth curve, R. dentocariosa [3, 6]: 202.9
28 | O=C(O)CC(Br)C(=O)O (stereo not shown) [Bromo Succinic Acid] | 430.7 | 102.6 | AUC of growth curve, R. gilardii [4, 6]: 67.3; AUC of growth curve, R. dentocariosa [3, 6]: 808.4
29 | OC[C@H]1O[C@@H](n2cnc3c(O)ncnc32)[C@H](O)[C@@H]1O [Inosine] | 1075.0 | 141.0 | –
30 | O=C(O)CC(O)(CC(=O)O)C(=O)O [Citric Acid] | 169.0 | 846.5 | AUC of growth curve, R. gilardii [4, 6]: 156.2
31 | CCC(C)N (stereo not shown) [Sec-Butylamine] | – | – | AUC of growth curve, R. mucilaginosa [5]: 67.6
32 | C[C@H](N)C(=O)O [L-Alanine] | 564.0 | 775.3 | –
33 | OC[C@@H](O)[C@@H](O)[C@H](O)[C@H](O)CO [D-Mannitol] | 884.6 | 420.0 | –
34 | CC(N)=O [Acetamide] | 93.1 | 123.0 | –
35 | NCC(=O)O [Glycine] | 743.1 | 101.6 | –
36 | NC(=O)CC[C@H](N)C(=O)O [L-Glutamine] | 697.1 | 987.8 | –
37 | O=C(O)[C@@H](O)[C@@H](O)[C@H](O)[C@@H](O)C(=O)O [D-Saccharic Acid] | 57.3 | 108.8 | –
38 | O=C(CO)[C@@H](O)[C@H](O)[C@@H](O)CO [L-Sorbose] | 458.7 | – | AUC of growth curve, P. aeruginosa [2]: 94.3; AUC of growth curve, R. dentocariosa [3]: 52.1

Row | Compound | AUC of growth curve, S. aureus [1] | AUC of growth curve, P. aeruginosa [2, 6] | other results
39 | O=C(CO)[C@@H](O)[C@@H](O)[C@H](O)CO [D-Tagatose] | 633.2 | – | AUC of growth curve, P. aeruginosa [2]: 574.0; AUC of growth curve, R. gilardii [4]: 75.2; AUC of growth curve, R. dentocariosa [3]: 117.7
40 | O=C1CC[C@@H](C(=O)O)N1 [L-Pyroglutamic Acid] | 427.9 | 1438.7 | –
41 | CC(C)C[C@H](N)C(=O)O [L-Leucine] | 231.5 | 125.5 | –
42 | O=C[C@H](O)[C@@H](O)[C@@H](O)[C@H](O)C(=O)O [D-Galacturonic Acid] | 165.1 | 598.2 | AUC of growth curve, R. dentocariosa [3, 6]: 57.0
43 | NC(=O)CCC(=O)O [Succinamic Acid] | 490.3 | 53.6 | –
44 | NCC(O)c1ccc(O)cc1 (racemic) [D,L-Octopamine] | 166.2 | 1142.2 | –
45 | OC[C@@H](O)[C@@H](O)[C@H](O)[C@@H](O)CO [D-Sorbitol] | 412.2 | 129.8 | –
46 | CC(=O)N[C@@H](CCC(=O)O)C(=O)O [N-Acetyl-L-Glutamic Acid] | 184.1 | 272.5 | –
47 | OC[C@H]1O[C@@H](O[C@H]2[C@H](O)[C@@H](O)[C@H](O)O[C@@H]2CO)[C@H](O)[C@@H](O)[C@@H]1O [D-Cellobiose] | – | 70.0 | AUC of growth curve, S. aureus [1, 6]: 495.8
48 | O=C(O)Cc1ccc(O)cc1 [p_Hydroxy Phenyl Acetic Acid] | – | 987.9 | –
49 | CCC(=O)O [Propionic Acid] | 235.6 | 152.1 | AUC of growth curve, R. gilardii [4, 6]: 58.6
50 | O=C(O)CC(CC(=O)O)C(=O)O [Tricarballylic Acid] | 177.0 | 510.7 | –
51 | N[C@@H](CCO)C(=O)O [L-Homoserine] | 194.1 | 82.5 | –
52 | NCCCCN [Putrescine] | 274.2 | 656.8 | –
53 | NC(=O)C[C@H](N)C(=O)O [L-Asparagine] | 684.0 | 1032.0 | –
54 | N[C@H](CC(=O)O)C(=O)O [D-Aspartic Acid] | 242.2 | 101.3 | –
55 | N=C(N)NCCC[C@H](N)C(=O)O [L-Arginine] | 816.4 | – | AUC of growth curve, P. aeruginosa [2]: 285.4
56 | NCCc1ccc(O)cc1 [Tyramine] | – | 684.5 | –
